According to article PMC4586009, “Phytochemical composition, antiparasitic and α–glucosidase inhibition activities from Pelliciera rhizophorae” (Chemistry Central Journal, 2015):
Where two headings read alike, the source gives them in different places.

Legend:
L. donovani = assay: In vitro antiparasitic assay against L. donovani amastigotes (PicoGreen); type: cell-based; settings: Leishmania donovani, I = inactive at 10 µg/mL
Method: Promastigotes cultures of L. donovani are maintained in continuous log phase growth in Liver Infusion Tryptose (LIT) Medium, pH 7.2, supplemented with 10 % Fetal Bovine Serum (FBS) at 28 °C. For promastigote transformation into amastigote forms, 1 mL of promastigotes log phase culture is transferred into 5 mL of Medium 199 Modified (SIGMA-Cat M3769) pH 5.5, supplemented with 0.1 g/L L-glutamine, 2.2 g/L sodium bicarbonate, 2 g Glucose, 5 mL penicillin–streptomycin and 20 % FBS and maintained at 35 °C until its use for bioassays.
(§1) Dry samples were diluted in 100 % DMSO (dimethylsulfoxide) to obtain a concentration of 4 mg/mL. Samples are used immediately in the bioassay and stored at −20 °C in the dark until results are obtained. All assays are performed in sterile 96-well microtitre culture plates (Costar Cat 3595). In a primary screening samples are tested in duplicate wells at a final concentration of 10 μg/mL. […] The IC50 is analyzed with the Excel Add-On software LSW Data Analysis Tool. The concentration that inhibited the growth of the parasites to 50 % (IC50) was calculated through the inhibition curve of the obtained optical density values, and compared to the untreated controls.
(§2) L. donovani and P. falciparum A […] is used to determine the amount of parasites in culture. After 48 and 72 h incubation, respectively, 1 % PicoGreen® solution is added to all wells in the dark. After shaking, the plate is taken into a microplate reader employing 485/20 nm excitation and 528/20 nm emission filter sets.

P. falciparum [1] = assay: In vitro antiplasmodial assay, chloroquine-resistant strain Indochina W2 (PicoGreen); type: cell-based; settings: Plasmodium falciparum, I = inactive at 10 µg/mL, read-out: Antiparasitic activity IC50, P. falciparum
Method: The cultures are kept in synchrony by thermal cycling incubation and are maintained in continuous log phase growth in RPM-I1640 medium (SIGMA) supplemented with 2 % washed human O Rh positive (+) erythrocytes, 25 mM HEPES, […] NaHCO3, and 10 % Human Serum from an O Rh+ donor. All cultures and assays are conducted at 37 °C under an atmosphere of 5 % CO2 and 5 % O2, with a balance of N2 (90 %).
as §1, §2

[2] = Cytotoxicity bioassay (MTT); type: cell-based; settings: African green monkey, five days, I = inactive at 10 µg/mL
Method: Vero cells were seeded in 96-well plates in RPM-I1640 medium supplemented with 10 % FBS and 1 % penicillin/streptomycin. The cells were allowed to grow for 24 h before adding the test compounds, dissolved in DMSO, to final concentrations of 10, 4, 0.2 and 0.08 µg/mL. A sample with only a volume of DMSO similar to the added volume in the compounds samples was placed as a negative control in all plates. All samples were incubated for five days before staining and examining for reduction of 3-(4,5-dimethylthiazol-2-yl)-2,5-diphenyltetrazolium bromide (MTT) and analyzed 4 h later in a color plate reader at 570 nm.

T. cruzi [3] = assay: In vitro T. cruzi growth inhibition, Tulahuen clone C4 expressing β-galactosidase, in Vero cells; type: cell-based; settings: Trypanosoma cruzi, strain Tulahuen, I = inactive at 10 µg/mL, read-out: Antiparasitic activity IC50, T. cruzi
Method: T. cruzi (Tulahuen) C4 strain lactosidase (Lac Z) gene. The strain is maintained on VERO Cells (African Green Monkey cell line obtained from ATCC on 2006), grown in monolayers in RPM-I1640 medium, supplemented with 10 % heat inactivated FBS. All cultures and assays are conducted at 37 °C under an atmosphere of 5 % CO2/95 % air mixture.
as §1
T. cruzi In this assay, a colorimetric method is used to determine the inhibition of parasite growth as detected by reduction of β-galactosidase (β-Gal) as a reporter gene, expressed by the Tulahuen clone C4 of T. cruzi. Assays are performed on […], the intracellular form of the parasite infecting African green monkey kidney (VERO) cells, exposed during 120 h to different concentrations (50, 10 and 2 µg/mL) of the test substance. The resulting colour from the cleavage of chlorophenol red-β-D-galactoside (CPRG) by β-Gal expressed by the parasite, was measured using a Benchmark Bio-Rad microplate reader at 570 nm.

[4] = molecular target: α-glucosidase from baker's yeast; assay: α-Glucosidase inhibitory assay (PNP-G substrate) and kinetic analysis; type: biochemical, S. cerevisiae
Method: Lineweaver–Burk plots were constructed using different concentrations of substrate and triterpenes 1–5.
The α-glucosidase inhibitory assay was performed according to Chan and collaborators (2010), with modifications. α-glucosidase from baker’s yeast purchased from Sigma Chemical Co. The inhibition was measured spectrophotometrically at pH 7.0 and 37 °C employing 2 mM p-nitrophenyl α-D-glucopyranoside (PNP-G) as a substrate and 32 mU/mL of enzyme, in 100 mM potassium phosphate buffer (enzyme stock). […] The absorbance (A) of 4-nitrophenol released by the hydrolysis of PNP-G was measured at 400 nm by Synergy HT Bio Tek microplate spectrophotometer. […] After incubating, 150µL of substrate was added and further incubated for 20 min at 37 °C. All assays are performed in 96-well microplates (Greiner bio-one 655101) in duplicate. The activity of samples was calculated as a percentage in comparison to a control (DMSO or MeOH instead of sample solution) according with the following equation:
%Inhibition=(ΔAcontrol-ΔAsample)/ΔAcontrol×100%
The concentration required to inhibit activity of the enzyme by 50 % (IC50) was calculated by regression analysis.

T. cruzi [5] = settings: read-out: IC50 of positive control for T. cruzi; positive control range; cited from earlier work
P. falciparum [6] = settings: read-out: IC50 of positive control for P. falciparum; positive control range; cited from earlier work
[7] = pH 7.0, 37 °C, 2 mM PNP-G, read-out: α-glucosidase inhibition IC50
[8] = α-glucosidase IC50 in Table 2, read-out: IC50
[9] = read-out: IC50, Vero cells (cytotoxicity)

Structure (SMILES) | IC50 (L. donovani) | IC50 (P. falciparum [1]) | IC50 at 5 days ([2]; Vero cells) | IC50 (T. cruzi [3]) | IC50 [4, 7] | α-glucosidase inhibition IC50 ([4]; pH 7.0, 37 °C, 2 mM PNP-G) | IC50 [4, 8] | IC50 (T. cruzi [5]) | IC50 at 5 days [2, 9] | IC50 (P. falciparum [6]) | melting point | type of α-glucosidase inhibition (Lineweaver–Burk plots) ([4]; different concentrations of substrate and inhibitor)
C[C@@H]1[C@H](O)[C@@H](C)/C=C/C=C/C=C/C=C/C=C/C=C/C=C/[C@H](O[C@@H]2O[C@H](C)[C@@H](O)[C@H](N)[C@@H]2O)C[C@@H]2O[C@](O)(C[C@@H](O)C[C@@H](O)[C@H](O)CC[C@@H](O)C[C@@H](O)CC(=O)O[C@H]1C)C[C@H](O)[C@H]2C(=O)O [Anfotericine B, Amphotericin B, reference compound] | 1 ± 0.12 µM | – | – | – | – | – | – | – | – | – | – | –
O=c1c(O)c(-c2ccc(O)cc2)oc2cc(O)cc(O)c12 [Compound 8, kaempferol] | 22.9 ± 0.2 µM | > 10 µg/mL | 154.9 ± 0.6 µM | > 10 µg/mL | 262000 nM | – | – | – | – | – | – | –
O=c1c(O)c(-c2ccc(O)c(O)c2)oc2cc(O)cc(O)c12 [Compound 9, quercetin] | 12.6 ± 0.2 µM | 9.7 ± 0.3 µM | > 10 µg/mL | 13 ± 0.4 µM | 29800 nM | – | – | – | – | – | – | –
[O-][S@+]1C[C@H](O)CS1 [Compound 6, brugierol] | > 10 µg/mL | > 10 µg/mL | > 10 µg/mL | > 10 µg/mL | – | inactive | – | – | – | – | – | –
C[C@H]1[C@H](C)CC[C@]2(C(=O)O)CC[C@]3(C)C(=CC[C@@H]4[C@@]5(C)CC[C@H](O)C(C)(C)[C@@H]5CC[C@]43C)[C@H]12 [Compound 3, ursolic acid] | 2.4 ± 0.1 µM | 21.9 ± 0.6 µM | 64.8 ± 0.3 µM | > 10 µg/mL | 1080 nM | – | 1080 nM | – | – | – | – | –
CC1CS(=O)(=O)CCN1/N=C/c1ccc([N+](=O)[O-])o1 (centres unmarked) [Nifurtimox, reference compound] | – | – | – | 1.6 ± 0.11 µM | – | – | – | 0.15 to 13.4 µM | – | – | – | –
CC1(C)CC[C@]2(C)CC[C@]3(C)C(=CC[C@@H]4[C@@]5(C)CC[C@H](O)C(C)(C)[C@@H]5CC[C@]43C)[C@@H]2C1 [Compound 2, β-amyrine] | > 10 µg/mL | > 10 µg/mL | – | > 10 µg/mL | 20 nM | – | 20 nM | – | > 10 µg/mL | – | – | –
C=C(C)[C@@H]1CC[C@]2(C(=O)O)CC[C@]3(C)[C@H](CC[C@@H]4[C@@]5(C)CC[C@H](O)C(C)(C)[C@@H]5CC[C@]43C)[C@@H]12 [Compound 5, betulinic acid] | > 10 µg/mL | 18 ± 0.4 µM | – | > 10 µg/mL | 2370 nM | – | 2370 nM | – | 131.1 ± 0.3 µM | – | – | –
CCN(CC)CCCC(C)Nc1ccnc2cc(Cl)ccc12 (centres unmarked) [Chloroquine] | – | – | – | – | – | – | – | – | – | 80 to 100 nM | – | –
CC1(C)CC[C@]2(C(=O)O)CC[C@]3(C)C(=CC[C@@H]4[C@@]5(C)CC[C@H](O)C(C)(C)[C@@H]5CC[C@]43C)[C@@H]2C1 [Compound 4, oleanolic acid] | 5.3 ± 0.2 µM | > 10 µg/mL | 140.8 ± 0.5 µM | > 10 µg/mL | 980 nM | – | 980 nM | – | – | – | – | –
[O-][S@@+]1C[C@H](O)CS1 [Compound 7, iso-brugierol] | > 10 µg/mL | > 10 µg/mL | > 10 µg/mL | > 10 µg/mL | – | inactive | – | – | – | – | 82 to 83 °C | –
C[C@H]1O[C@H](O[C@H]2[C@H](O)[C@@H](O)[C@@H](O[C@H]3[C@H](O)[C@@H](O)C(O)O[C@@H]3CO)O[C@@H]2CO)[C@H](O)[C@@H](O)[C@@H]1N[C@H]1C=C(CO)[C@@H](O)[C@H](O)[C@H]1O (some centres unmarked) [acarbose, reference compound] | – | – | – | – | – | – | – | – | – | – | – | competitive inhibitor
C[C@H]1[C@H](C)CC[C@]2(C)CC[C@]3(C)C(=CC[C@@H]4[C@@]5(C)CC[C@H](O)C(C)(C)[C@@H]5CC[C@]43C)[C@H]12 [Compound 1, α-amyrine] | > 10 µg/mL | > 10 µg/mL | > 10 µg/mL | 19 ± 0.6 µM | 1450 nM | – | 1450 nM | – | – | – | – | –
